Test results from US20250052751A1, “COMPOSITIONS AND METHODS FOR DIAGNOSING AUTOIMMUNE AQUAPORINOPATHY” (The Regents of the University of California, priority 2023, published 2025).

Columns and labels:
CD4^+ T cells = experiment: I-A^b:peptide tetramer binding by flow cytometry after peptide immunization; assay type: cell-based, mouse; conditions: Aire^−/− mice, I-A^b:IRBP p277-289 tetramer
Description: (§1) FIGS. 4A-4B. Negative selection of AQP4 p133-149-reactive T cells is bypassed partially in mice deficient in thymic AQP4 expression. (FIG. 4A) AQP4^−/− WT, Foxn1cre-AQP4^fl/fl, Aire^−/−, or Foxn1cre-Fezf2^fl/fl mice were immunized s.c. with peptides indicated. Peptide-specific proliferation of draining lymph node cells was measured by 3H-thymidine incorporation (mean±SEM, representative of five experiments). Comparisons within the five experiments for p133-149 at […]: WT vs. AQP4^−/− (p=0.008), WT vs. Foxn1cre-AQP4^fl/fl (p=0.008). (FIG. 4B) Ten days after peptide immunization, CD4^+ T cells from draining lymph nodes were analyzed for I-A^b: peptide tetramer binding by flow cytometry. Each data point represents the frequency (mean±SEM) of CD4^+ T cells bound to cognate antigen-tetramer in a single mouse. […] For p133-149: WT vs. Aire^−/− (p=0.9), WT vs. Foxn1cre-Fezf2^fl/fl (p=0.3). For p202-218: WT vs. Foxn1cre-AQP4^fl/fl (p=0.3), WT vs. Aire^−/− (p=0.06).
Flow cytometry. For analysis of tetramer binding, AQP4 p133-149, p202-218, IRBP p277-289 and hCLIP p87-101 IA^b tetramers conjugated to PE or APC were provided by the National Institute of Allergy and Infectious Diseases Tetramer Core Facility at Emory University. Lymphocytes were coincubated with 1 mg/ml tetramer conjugated to PE or APC for 2 hours at room temperature, washed and enriched using anti-PE magnetic microbeads (Miltenyi) over a magnetic column. Binding to hCLIP tetramer was used as a negative control. Dead cells were excluded using Live/Dead fixable Aqua Dead Cell Stain Kit (Invitrogen), lineage negative cells were excluded using antibodies to CD11b (M1/70), B220 (RA3-6B2) and CD8 (53-6.7) and positive cells were selected using antibodies to CD3 (145-2C11) and CD4 (RM4.5). 123count eBeads (Invitrogen) were used with unenriched and enriched samples for quantification of the frequency of tet^+CD4^+ T cells (total number of tet^+CD4+ T cells divided by total CD4^+ T cells per mouse). For figures showing tetramer staining, flow cytometry of the unenriched cells are shown. For analysis of GFP^+ T cells, mice were perfused with PBS, and the CNS was dissected, minced, digested with collagenase and DNase I (Roche), and isolated over a Ficoll gradient as described previously (39). Live CD4^+ cells were analyzed with a viability stain (Near-IR), and antibodies to CD11b, B220, CD8 and CD4. Apoptosis was analyzed separately using the same antibody staining, followed by Annexin V and 7-AAD staining in Annexin V binding buffer (BioLegend) per manufacturer's instructions. Cells were quantified using 123count eBeads.

[1] = system: draining lymph node cells; experiment: T cell cross-reactivity between AQP4 and AQP5, ^3H-thymidine proliferation; assay type: cell-based, mouse; conditions: AQP4-deficient mice immunized with 100 μg AQP5 p174-190; cells cultured with AQP4 201-220, then restimulated
Description: FIG. 8. T cells cross-react with AQP4 and AQP5. AQP4-deficient mice were immunized with 100 μg of AQP5 p174-190. Draining lymph node cells were cultured with AQP4 201-220, then restimulated with the different antigens. Proliferation was measured by ^3H-thymidine incorporation of the stimulation to antigen divided by the background stimulation (mean±SEM).
(§2) Proliferation assays. Mice were immunized subcutaneously (s.c.) with 100 μg of AQP4, MOG or IRBP peptide in CFA containing 400 μg M. tuberculosis H37Ra (Difco Laboratories). Lymph nodes were harvested on day 10-12 and cultured at 2×10^5/well with various concentrations of peptide in triplicate wells for 72 hours. […] of ^3H-thymidine was added 18 hours prior to cell harvest, and data are presented as counts per minute (CPM). Stimulation Index (SI) was calculated by dividing CPM in wells with Ag by CPM in wells with no antigen controls of each assay test group.

TCRα deficient mice = experiment: Adoptive transfer of peptide-primed, AQP4 201-220-cultured Th17 cells into TCRα deficient mice; assay type: in vivo, mouse; conditions: for clinical CNS autoimmune disease after transfer of primed Th17 cells: donor AQP4-deficient mice primed with the peptide, cells cultured with AQP4 201-220, 2×10^7 T cells into TCRα deficient mice; for meningeal and parenchymal infiltrates vs OVA primed T cells: recipients of primed donor T cells, histological analysis
Description: FIGS. 9A-9C. T cells reactive to AQP5, an autoantigen in Sjögren's syndrome also recognize AQP4, the autoantigen in NMO, and can cause CNS autoimmune disease. (FIG. 9A) AQP4-deficient mice were immunized with AQP4 p201-220, AQP5 p174-190 or OVA 323-339. 10-12 days later lymphocytes from draining lymph nodes are removed and cultured with AQP4 201-220 under Th17 polarizing conditions for 72 hours. 2×10^7 T cells were transferred into TCRα deficient mice, followed by 200 ng Pertussis toxin at days 0 and 2. […] Statistics performed using ANOVA with Tukey's test for multiple comparisons. ****P<0.0001.
CNS autoimmune disease induction and analysis. For adoptive induction of CNS disease with primary lymphocytes, mice were immunized s.c. with 100 μg AQP4 or MOG peptides in CFA containing 400 μg M. tuberculosis H37Ra (Difco Laboratories). After 10-12 days, lymph node cells were cultured with 15 μg/ml antigen for 3 days with 20 ng/ml IL-23 and 10 ng/ml IL-6, under Th17 polarizing conditions. 2×10^7 cells were injected i.v. into naïve recipients, which then received 200 ng B. pertussis toxin (Ptx) (List Biological) i.p. on days 0 and 2. Clinical scores: 0=no disease, 1=tail tone loss, 2=impaired righting, 3=severe paraparesis or paraplegia, 4=quadraparesis, and 5=moribund or death.
Histopathology. Brain, spinal cord, optic nerve, kidney and muscle tissue samples were fixed in 10% neutral-buffered formalin, paraffin-embedded, sectioned and stained with H&E. Meningeal and parenchymal inflammatory lesions and areas of demyelination were assessed in a blinded manner as described (39).

[2] = target: T1, MHC class II I-A^b molecules (Mus musculus, UniProt P14434+P14483); experiment: I-A^b affinity assay (competitive binding against a radiolabeled high-affinity peptide); conditions: purified I-A^b; unlabeled peptide vs radiolabeled high-affinity competitor peptide
T1 construct: made in house
T1 sequence (P14434 24-256): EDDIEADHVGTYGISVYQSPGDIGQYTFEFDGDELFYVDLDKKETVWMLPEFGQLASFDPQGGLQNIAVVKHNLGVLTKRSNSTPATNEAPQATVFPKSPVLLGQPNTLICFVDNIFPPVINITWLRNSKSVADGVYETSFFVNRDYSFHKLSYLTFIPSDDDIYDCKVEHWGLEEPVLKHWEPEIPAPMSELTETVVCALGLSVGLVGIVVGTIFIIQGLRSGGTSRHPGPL
T1 sequence (P14483 28-265): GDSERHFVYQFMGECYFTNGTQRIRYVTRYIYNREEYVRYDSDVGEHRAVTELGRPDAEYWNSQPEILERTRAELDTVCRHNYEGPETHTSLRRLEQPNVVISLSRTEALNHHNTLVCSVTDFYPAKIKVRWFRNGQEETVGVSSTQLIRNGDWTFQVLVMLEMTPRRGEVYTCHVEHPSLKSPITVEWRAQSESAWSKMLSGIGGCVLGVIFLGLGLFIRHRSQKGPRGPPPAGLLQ
Description: (§3) FIGS. 2A-2F. Pathogenic AQP4 determinants bind I-A^b with high affinity and elicit proliferation of AQP4: I-A^b-specific TCR-bearing T cells in AQP4-deficient mice. (FIG. 2A) WT or AQP4^−/− mice were immunized s.c. with peptides indicated. Peptide-specific proliferation of draining lymph node cells was measured by 3H-thymidine incorporation (mean±SEM, representative of five experiments). (FIG. 2B) Lymph node cells from AQP4 immunized WT or AQP4^−/− mice were cultured for 3 days with cognate antigen under Th17 polarizing conditions. AQP4 p133-149- and p202-218-specific Th17 cells from AQP4/donors induce paralysis in WT recipient mice. (FIG. 2C) IEDB, an in silico method for predicting determinants within proteins that bind MHC alleles, was used to identify AQP4 amino acid sequences anticipated to bind I-A^b for recognition by AQP4-specific/I-A^b-restricted CD4^+ T cells. 1/IC50 is plotted against the first amino acid for each overlapping AQP4 15 mer. Peaks correspond to increased predicted binding affinity. (FIG. 2D) Purified I-A^b molecules were tested biochemically for peptide binding affinity using a competitive binding assay between a radiolabeled high-affinity competitor peptide and unlabeled peptides (22). Lower IC50 values indicate higher binding affinity. Boxed amino acids designate the core binding regions. (FIGS. 2E-2F) Lymph node T cells isolated from WT or AQP4−/− mice immunized with AQP4 p133-149 or p202-218 were stained with I-A^b:p133-149 and […] tetramers, bead-enriched and analyzed by flow cytometry. […] Each data point represents one mouse. ****p<0.0001 (Mann Whitney U test).
Both AQP4 p133-149 and p202-218 are predicted to bind MHC II (I-A^b) with high affinity according to the Immune Epitope Database (IEDB) (FIG. 2C), an in silico method for predicting determinants within proteins that bind allele-specific MHC molecules for presentation to T cells (21). We have now examined AQP4 peptide affinity for I-A^b biochemically. I-A^b molecules that were purified by affinity chromatography were tested in a competitive binding assay between a radiolabeled high-affinity competitor peptide and unlabeled peptides (22). Indeed, peptides containing the two pathogenic AQP4 T cell determinants bound I-A^b with higher affinity than the nonpathogenic AQP4 p24-35 T cell epitope or MOG p35-55 (FIG. 2D).
I-A^b affinity Assay. Purification of MHC class II I-A^b molecules by affinity chromatography, and the performance of assays based on the inhibition of binding of a high affinity radiolabeled peptide to quantitatively measure peptide binding, were performed as described (22). Lower IC50 values indicate higher binding affinity. Excellent binders have affinities less than 100 nM and good binders have affinities less than 1000 nM.

[3] = system: draining lymph node cells; experiment: Proliferation assay, ^3H-thymidine incorporation after s.c. peptide immunization; assay type: cell-based, mouse
Description: as §3, §1, §2

IRBP p277-289: Aire-dependent T cell determinant of interphotoreceptor retinoid-binding protein (FLTVPVSRSLGPL; UniProt P49194 277-289, looked up, fragment) [reference compound]
expansion of CD4^+ tet^+ T cells (CD4^+ T cells): promoted expansion

LVGIYFTGCSMNPARSF [AQP5 p174-190, autoantigen in Sjögren's syndrome]
T cell cross-reactivity [1]: T cell cross-reactivity between AQP5 174-190 and AQP4 201-220 | T cell stimulation (proliferation) [1]: stimulatory | clinical CNS autoimmune disease after transfer of primed Th17 cells (TCRα deficient mice): cause paralysis | clinical CNS autoimmune disease after transfer of primed Th17 cells (TCRα deficient mice; listed as AQP5 174-190): can induce clinical and histologic CNS autoimmune disease | meningeal and parenchymal infiltrates vs OVA primed T cells (TCRα deficient mice): significantly more meningeal and parenchymal infiltrates

AQP4 p201-220: AQP4 T cell epitope (201-220) that causes CNS autoimmunity in mice (HLFAINYTGASMNPARSFGP; UniProt P55088 201-220, looked up, fragment)
peptide binding affinity for I-A^b [2]: exceptionally high affinity | clinical CNS autoimmune disease after transfer of primed Th17 cells (TCRα deficient mice): cause paralysis | meningeal and parenchymal infiltrates vs OVA primed T cells (TCRα deficient mice): significantly more meningeal and parenchymal infiltrates

AQP4 p24-35: nonpathogenic AQP4 T cell epitope (VAFKGVWTQAFW) [reference compound]
discordance in proliferation between AQP4^−/− and WT mice [3]: not observed
